In the experiment the target is Mitogen-activated protein kinase 9 (Homo sapiens, UniProt P45984). The experiment in a line: Inhibition of His6-tagged JNK2 (unknown origin) assessed as reduction in c-Jun phosphorylation using GST-c-Jun (1 to 79 residues) and [gamma32P]ATP incubated for 1 hr by scintillation counting assay.

As usually defined, the IC50 is the concentration at which inhibition is half-maximal.

Chain of Mitogen-activated protein kinase 9 (P45984 whole entry, the tested form may be a part): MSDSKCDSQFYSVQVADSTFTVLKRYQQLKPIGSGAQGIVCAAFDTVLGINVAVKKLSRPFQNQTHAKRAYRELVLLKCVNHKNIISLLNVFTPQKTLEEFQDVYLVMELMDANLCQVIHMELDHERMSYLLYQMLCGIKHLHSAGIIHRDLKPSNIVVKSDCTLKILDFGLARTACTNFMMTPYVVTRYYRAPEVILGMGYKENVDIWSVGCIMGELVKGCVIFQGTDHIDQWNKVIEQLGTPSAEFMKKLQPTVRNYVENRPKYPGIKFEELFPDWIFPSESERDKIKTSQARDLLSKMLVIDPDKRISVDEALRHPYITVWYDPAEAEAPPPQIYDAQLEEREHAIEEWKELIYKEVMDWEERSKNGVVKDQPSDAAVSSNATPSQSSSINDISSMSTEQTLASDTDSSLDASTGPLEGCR

As to `Nc1ccc2[nH]nc(-c3ccc(F)cc3)c2c1`, the IC50 was not above 10 µM. To `Fc1ccc(-c2n[nH]c3ccc(CCc4ccccc4)cc23)cc1` belongs not above 10 µM; to `O=C(CCN1CCCCC1)Nc1cccc(-c2n[nH]c3ccc(-c4nc[nH]n4)cc23)c1`, 1 to 10 µM. With `NCCNC(=O)c1ccc2[nH]nc(-c3ccc(F)cc3)c2c1`, the IC50 is not above 10 µM.

For the molecule `COc1ccc(C(=O)Nc2cccc(-c3n[nH]c4ccc(-c5nc[nH]n5)cc34)c2)cc1`, the IC50 lay within 0.5 to 10 µM. Consider `O=C(O)CCc1nnc(-c2ccc3[nH]nc(-c4ccc(F)cc4)c3c2)[nH]1`, for which the IC50 lay in the range of 1 to 10 µM. To `CCCC(=O)Nc1cccc(-c2n[nH]c3ccc(-c4nc[nH]n4)cc23)c1` belongs 0.5 to 10 µM. For `O=C(N[C@@H]1CCc2ccccc21)c1cccc(-c2n[nH]c3ccc(-c4ncn[nH]4)cc23)c1`, the IC50 fell in the range of 0.5 to 10 µM. To `Fc1ccc(-c2n[nH]c3ccc(-c4cc[nH]n4)cc23)cc1` belongs 1 to 10 µM; to `NC(=O)c1ccc2[nH]nc(-c3cccc(NC(=O)c4cccnc4)c3)c2c1`, 1 to 10 µM; to `CNCc1nc(-c2ccc3[nH]nc(-c4ccc(F)cc4)c3c2)n[nH]1`, 0.5 to 10 µM. In the case of `O=C(/C=C/c1ccccc1)Nc1cccc(-c2n[nH]c3ccc(-c4nc[nH]n4)cc23)c1`, the IC50 lay in the range of 1 to 10 µM.

Regarding `CN(C)CC(=O)Nc1ccc(-c2n[nH]c3ccc(-c4nc[nH]n4)cc23)cc1`, the IC50 fell in the range of 1 to 10 µM. To `O=C(Nc1cccc(O)c1)c1ccc2[nH]nc(-c3ccc(F)cc3)c2c1` belongs 1 to 10 µM; to `CC(C)c1ccc(-c2n[nH]c3ccc(-c4nnn[nH]4)cc23)cc1`, 1 to 10 µM; to `O=C(Nc1cccc([N+](=O)[O-])c1)c1ccc2[nH]nc(-c3ccc(F)cc3)c2c1`, 1 to 10 µM. Regarding `O=C(NO)c1ccc2[nH]nc(-c3ccc(F)cc3)c2c1`, the IC50 lay in the range of 1 to 10 µM. With `O=C(Nc1ccc2[nH]nc(-c3ccc(F)cc3)c2c1)c1ccco1`, the IC50 was in the range of 1 to 10 µM. For the molecule `c1cncc(COc2cccc(-c3n[nH]c4ccc(-c5nc[nH]n5)cc34)c2)c1`, the IC50 was in the range of 1 to 10 µM. The result for `COC(=O)c1ccc(NC(=O)c2ccc3[nH]nc(-c4ccc(F)cc4)c3c2)cc1` reads not above 10 µM; that for `Fc1ccc(-c2n[nH]c3ccc(-c4nn[nH]n4)cc23)cc1`, 0.5 to 10 µM. The result for `Clc1cccc(-c2n[nH]c3ccc(-c4ncn[nH]4)cc23)c1` reads 1 to 10 µM. The result for `CC(O)c1nnc(-c2ccc3[nH]nc(-c4ccc(F)cc4)c3c2)[nH]1` (stereo not drawn) reads 0.5 to 10 µM; that for `Cc1ccc2[nH]nc(-c3ccccc3)c2c1`, not above 10 µM. Take `Oc1cccc(-c2n[nH]c3ccc(-c4nnn[nH]4)cc23)c1`: the IC50 lay within 0.5 to 10 µM.

As to `O=C(NCc1ccncc1)c1ccc2[nH]nc(-c3ccc(F)cc3)c2c1`, the IC50 lay within 1 to 10 µM. The result for `COc1ccc(-c2n[nH]c3ccc(-c4ncn[nH]4)cc23)cc1` reads 1 to 10 µM; that for `CN(C)Cc1nc(-c2ccc3[nH]nc(-c4cccc(NC(=O)CC(C)(C)C)c4)c3c2)n[nH]1`, 0.5 to 10 µM. The result for `C(#Cc1n[nH]c2ccc(-c3nnn[nH]3)cc12)c1ccccc1` reads 1 to 10 µM; that for `O=C(Nc1ccccc1)c1cccc(-c2n[nH]c3ccc(-c4nc[nH]n4)cc23)c1`, 0.5 to 10 µM; that for `CCOc1cccc(-c2n[nH]c3ccc([N+](=O)[O-])cc23)c1`, not above 10 µM. To `Oc1ccc2[nH]nc(-c3ccccc3)c2c1` belongs 1 to 10 µM; to `NC(=O)c1ccc(C(=O)Nc2ccc3[nH]nc(-c4ccc(F)cc4)c3c2)cc1`, 1 to 10 µM. For the molecule `O=C(Nc1ccncc1)c1ccc2[nH]nc(-c3ccc(F)cc3)c2c1`, the IC50 is 1 to 10 µM. The result for `Cc1ccc2[nH]nc(-c3ccc(F)cc3)c2c1` reads not above 10 µM; that for `CN(C)CCCOc1cccc(-c2n[nH]c3ccc(-c4nnn[nH]4)cc23)c1`, 0.5 to 10 µM. Turning to `c1coc(-c2n[nH]c3ccc(-c4nnn[nH]4)cc23)c1`, the IC50 was in the range of 0.5 to 10 µM. To `COCCNC(=O)c1cccc(-c2n[nH]c3ccc(-c4nc[nH]n4)cc23)c1` belongs 0.5 to 10 µM. The result for `NC(=O)c1ccc2[nH]nc(-c3cccc(N)c3)c2c1` reads 1 to 10 µM; that for `O=[N+]([O-])c1cccc(/C=C/c2ccc3[nH]nc(-c4ccc(F)cc4)c3c2)c1`, not above 10 µM; that for `O=C(Nc1cccc(-c2n[nH]c3ccc(-c4nc[nH]n4)cc23)c1)c1ccc(Cl)cc1Cl`, 1 to 10 µM. The result for `C(=C\c1n[nH]c2ccc(-c3nnn[nH]3)cc12)/c1ccccc1` reads 0.5 to 10 µM; that for `CC(C)c1cccc(-c2n[nH]c3ccc(-c4nc[nH]n4)cc23)c1`, 1 to 10 µM. For the molecule `CC(=O)Nc1ccc2[nH]nc(-c3ccccc3)c2c1`, the 50% inhibitory concentration (IC50) fell in the range of 1 to 10 µM.

Consider `O=C(Nc1cccc(-c2n[nH]c3ccc(-c4nc[nH]n4)cc23)c1)c1ccccn1`, for which the IC50 is 0.5 to 10 µM. To `O=C(NCc1ccccn1)c1ccc2[nH]nc(-c3ccc(F)cc3)c2c1` belongs 1 to 10 µM; to `CN(C)CCCOc1ccc(-c2n[nH]c3ccc(-c4nnn[nH]4)cc23)cc1`, 0.5 to 10 µM. The result for `c1nc(-c2ccc3[nH]nc(-c4ccsc4)c3c2)n[nH]1` reads 1 to 10 µM; that for `O=C(Nc1ccc2[nH]nc(-c3ccc(F)cc3)c2c1)c1cccnc1`, 1 to 10 µM.

On to `Clc1ccccc1-c1n[nH]c2ccc(-c3ncn[nH]3)cc12`, for which the IC50 was in the range of 1 to 10 µM. To `Nc1cccc(-c2n[nH]c3ccc(-c4nnn[nH]4)cc23)c1` belongs 0.5 to 10 µM.

For the molecule `COC(=O)CCc1nnc(-c2ccc3[nH]nc(-c4ccc(F)cc4)c3c2)[nH]1`, the IC50 was in the range of 1 to 10 µM. As to `CN(C)Cc1n[nH]c(-c2ccc3[nH]nc(-c4cccc(C(=O)NCCN5CCCCC5)c4)c3c2)n1`, the IC50 fell in the range of 0.5 to 10 µM. To `c1cc(OCCN2CCCC2)cc(-c2n[nH]c3ccc(-c4ncn[nH]4)cc23)c1` belongs 1 to 10 µM; to `O=C(NOCc1ccccc1)c1ccc2[nH]nc(-c3ccc(F)cc3)c2c1`, not above 10 µM. In the case of `O=C(Nc1ccc2[nH]nc(-c3ccc(F)cc3)c2c1)c1ccccc1O`, the IC50 lay in the range of 1 to 10 µM. To `O=C(O)c1ccc(C(=O)Nc2ccc3[nH]nc(-c4ccccc4)c3c2)cc1` belongs 1 to 10 µM. As for `CC(C)c1n[nH]c(-c2ccc3[nH]nc(-c4ccc(F)cc4)c3c2)n1`, the IC50 lay within 0.5 to 10 µM. The result for `O=C(CCc1ccccc1)Nc1cccc(-c2n[nH]c3ccc(-c4nc[nH]n4)cc23)c1` reads 0.5 to 10 µM.

As for `C[C@H](O)C(=O)Nc1cccc(-c2n[nH]c3ccc(-c4nn[nH]n4)cc23)c1`, the half-inhibitory concentration (IC50) lay in the range of 0.5 to 10 µM. The result for `CC(=O)NCCOc1cccc(-c2n[nH]c3ccc(-c4ncn[nH]4)cc23)c1` reads 1 to 10 µM; that for `CNC(=O)c1ccc(C(=O)Nc2ccc3[nH]nc(-c4ccc(F)cc4)c3c2)cc1`, 1 to 10 µM. The result for `CN(C)C(=O)c1ccc2[nH]nc(-c3ccc(F)cc3)c2c1` reads not above 10 µM; that for `NC(=O)c1ccc2[nH]nc(-c3cccc(NC(=O)Cc4ccc(F)cc4Cl)c3)c2c1`, 1 to 10 µM. Regarding `COc1ccc(-c2n[nH]c3ccc(-c4nnn[nH]4)cc23)cc1OC`, the IC50 lay within 0.5 to 10 µM. To `CC(c1nc(-c2ccc3[nH]nc(-c4ccc(F)cc4)c3c2)n[nH]1)N(C)C` (stereo not drawn) belongs 0.5 to 10 µM; to `c1ccc2ncc(-c3n[nH]c4ccc(-c5nc[nH]n5)cc34)cc2c1`, 1 to 10 µM; to `O=C(NCc1cccnc1)c1ccc2[nH]nc(-c3ccc(F)cc3)c2c1`, 1 to 10 µM.

(Values after ChEMBL document CHEMBL3882725, “Indazole derivatives as JNK inhibitors and compositions and methods related thereto” (2002).)
